Experimental data as given in patent US8124657B2, “Metallofullerols and their applications for preparation of medicine for inhibition of tumor growth” (Institute of High Energy Physics Chinese Academy of Sciences, priority 2005, dated 2012).
Marks after values point to notes of the source that are not given here.

Assays:
H22 hepatoma = assay: Antitumor activity on murine H22 hepatoma implanted subcutaneously in Kunming mice; assay type: in vivo; details: for Tumor Weight: mean±SEM
Experimental: Antitumor studies of hydroxylated metallofullerene nanoparticles were performed on Kunming mice (female, adult, 4 weeks at the start of the experiment, body weight ranging from 20 to 22 g). The mice were subcutaneously implanted with 1×10^6 cells of H22 hepatoma (in 100 μl of saline) in each mouse at the right hind leg. Primary tumors (before administration of antitumor agents) were measured with calipers. The end point of the experiment was determined by the diameter of their leg loaded with tumor up to 2 or 2.2 centimeters. The size of tumor was monitored by daily measurement. Tumor growth curve was obtained by the diameter of the tumor as a function of the time.
The 40 mice of weight ranging from 20 to 22 g were randomly divided into 6 groups. The tumor-bearing mice were then systemically treated with hydroxylated metallofullerene nanoparticles saline solution by intraperitoneal injections once a day. Two doses of hydroxylated metallofullerene nanoparticles, 114 and 228 μg/kg corresponding to 1×10^−7 and 2×10^−7 mol/kg, respectively, were used in the experiment. The currently clinic antineoplastic agent CTX was used for the positive control, with a dose 30 mg/kg (1×10^−4 mol/kg, MW 279.1) of the currently clinic use for cancer therapy. Because of its side effects, treatments by 1×10^−4 and 5×10^−[…] of CTX continued for the first 7 days. Each mouse was administrated intraperitoneally (i.p.) a single dose of 0.2 ml per day from the second day of inoculation and continued to the day before sacrifice. The change of the tumor size was precisely measured every 24 hours.
Table 1 is the tumor weights (mean±SEM, Table 1) from 5-7 mice in each group. FIG. 1 is the Inhibition curve of hepatoma growth in mice by treatment with metallofullerol nanoparticles in two independent experiments. The growth of tumor size was monitored through measuring the diameter of the tumor every 24 hours. Tumor volumes were then calculated according to the formula: V=4πr^3/3. Tumor growth curve was obtained by the diameter of the tumor.

[1] = Serum liver and kidney function markers in H22 tumor-bearing mice; assay type: in vivo
Experimental: In another aspect, the invention of hydrolated metallofullerene nanoparticles low toxicity in vivo. Liver function was evaluated with serum levels of total bilirubin levels (TBIL), alanine aminotransferase (ALT) and aspartate aminotransferase (AST). Nephrotoxicity was determined by blood urea nitrogen (BUN) and creatinine (Cr). For instance, the ALT levels of saline-treated groups are almost 4 times of the normal mean value. These indicate that implantation of H22 hepatoma itself in mice has harmed the functions of liver and kidney before treatments. […] After nanoparticle-treatment, the activities of ALT and AST (P<0.01) are reduced by 40% compared with saline control.
Table 2 is the serum TBIL, ALT, AST, and creatinine levels in tumor-bearing mice associated with metallofullerol treatment.

[2] = system: H22 hepatoma tumor tissues; assay: HE staining of tumor tissues of H22 tumor-bearing mice; assay type: in vivo
Excerpt: The tumor morphology of HE staining of paraffin-embedded sections of tumor tissues in nanoparticle-treated, CTX-treated and the control groups, are shown in FIG. 9. In the saline control group, tumor cells heavily proliferated, arrayed regularly, and grievously invaded surrounding musculature (FIGS. 9A and B). […] When […] H22 liver tumors developed subcutaneously in mice, the envelope surrounding the neoplastic tissues, mainly composed of capillary vessels, fibrosis and lymphadenoid tissues were formed (FIG. 9C). […] In the [Gd@C82(OH)22]n-treated groups, lymphocyte hyperplasia (lymphopoiesis) and aggregated follicles around the transplanted tumor tissues were clearly seen (FIG. 9C). But in the CTX-treated mice, this envelope of fibroblasts associated with sporadic neutrophil cells was small so that it could not completely enclose the entire tumor tissues. Unlike in groups of the nanoparticle-treatment, the tumor invasion into surrounding normal muscle cells still existed in the CTX-treatment groups; although necrosis of tumor tissue was observed (FIGS. 9E and F).

[3] = system: MCF-7 human breast carcinoma
Experimental: Athymic BALB/c nu/nu female mice (weighing 16.0±1.0 g) were acclimated in the controlled environment (22±1° C. in temperature, 60±10% in humidity and a 12 h light/dark cycle) with free access to sterile distilled water and commercial laboratory complete food containing no pathogens. All animal experiments were performed in compliance with local ethics committee. The human beast cancer MCF-7 cell line was provided by the Cancer Institute and Cancer Hospital, Chinese Academy of Medical Sciences. The tumor bearing nude mice (female) were randomly divided into three groups, twelve in each group. […] A currently used clinical antitumor agent, Paclitaxel, was used as the positive control. Paclitaxel was given 4 times at intervals of 3 days at the dose of 10 mg/kg; when it was not injected, saline solution was injected instead of it. 0.9% saline solution was used as a negative control in the antitumor experiment. The whole administration process lasted 14 days after the starting point. The body weight and tumor size were used as two basic parameters in the experiments, and tumor growth and body weight curve were prepared as a function of time. Tumor weight was calculated according to the formula: Tumor weight (mg)=length (mm)×(width (mm))^2/2.

[4] = Dosage I (Low): CTX 5 × 10^−5 mol/kg/day i.p., n = 6
[5] = Dosage II (High): CTX 1 × 10^−4 mol/kg/day i.p., n = 11

Row | SMILES | Inhibition Efficiency (H22 hepatoma; [4]) [%] | Tumor Weight (H22 hepatoma; [4]) [g] | Inhibition Efficiency (H22 hepatoma; [5]) [%] | Tumor Weight (H22 hepatoma; [5]) [g] | Change of serum ALT versus saline ([1]; CTX-treated) | Serum ALT ([1]; high dose group) [IU/L] | Serum AST ([1]; high dose group) | Serum Creatinine ([1]; high dose group) [µmol/L] | Serum TBIL ([1]; high dose group) [µmol/L] | Change of serum concentrations of TBIL, BUN and Cr ([1]; i.p. injections) | Immune responses in tumor tissues (HE staining) [2] | Tumor necrosis in HE-stained tumor sections [2] | Inhibition Efficiency ([3]; CTX 71.6 μmol/kg/day, N = 10, nude mice) [%] | Mortality of mice ([3]; MCF-7 tumor-bearing nude mice under treatment) [%]
1 | O=P1(N(CCCl)CCCl)NCCCO1 (centres unmarked) [CTX] | 52.0 | 1.80 ± 0.41 | 67.5 | 1.22 ± 0.86 | not reduced, but even slightly increased | 152.2 ± 71.5 | 337 ± 53.7 ^a IU/L | 51.0 ± 3.3 | 1.66 ± 0.59 | do not significantly changed | not observed | evidently induced tumor necrosis | 47.0 | –
2 | CC(=O)O[C@H]1C(=O)[C@@]2(C)[C@H]([C@H](OC(=O)c3ccccc3)[C@]3(O)C[C@H](OC(=O)[C@H](O)[C@@H](NC(=O)c4ccccc4)c4ccccc4)C(C)=C1C3(C)C)[C@]1(OC(C)=O)CO[C@@H]1C[C@@H]2O [Paclitaxel] | – | – | – | – | – | – | – | – | – | – | – | – | – | 16.7
